Results on three compounds are retold here after patent publication US20120149902A1, “PYRROLO[2,3-D]PYRIMIDINE DERIVATIVE” (UBE INDUSTRIES, LTD., priority 2009, published 2012).

pIC50: −log10 of the molar value.

In assay [1] the test system is HER2 overexpressed gastric cancer cell line. Kind of assay: In vivo anti-tumor effect, subcutaneous tumor transplant in nude mouse. To be noted: oral, daily except Saturday and Sunday, 2 to 4 weeks, read-out: Tumor growth inhibition ratio (%). As for the experimental part: The anti-tumor effect in vivo of a compound of the present invention was evaluated using a HER2 overexpressed gastric cancer cell line. Specifically, a tumor fragment with about 5 mm square was transplanted subcutaneously using a transplantation needle, or an appropriate number of tumor cells was suspended in saline (Otsuka Pharmaceutical Co., Ltd.) and transplanted under the skin of the right axillary region of a nude mouse using a glass syringe equipped with a two-stage needle for subcutaneous injection. After the confirmation of the engraftment of the transplanted tumors, the mice were classified into groups depending on the tumor volume. The test compounds: the Example Compounds 1-1, 1-2, 1-5, 1-8, 1-13, 1-14, 1-15, 1-19, 1-20, 1-22, 2-1, 2-3, and 3-2 were each dissolved or suspended in an appropriate medium and orally administered forcedly to a mouse. The period of administration was varied from 2 weeks to 4 weeks depending on tumor, and the administration was carried out daily with drug holidays of Saturday and Sunday. The major axis (mm) and the minor axis (mm) of a tumor were measured sequentially using an electronic digital vernier caliper, and evaluated by the tumor growth inhibition ratio (GI %) on the judgement day (in principle, the next day of the final administration) using the following calculating formula.
A: Average tumor volume on the judgement day of the group to which a compound was administered (*)
B: Average tumor volume on the judgement day of the untreated control group (*)
*: The tumor volume is calculated by ½×[major axis of tumor]×[minor axis of tumor]^2.

Assay [2] addresses T1, purified human recombinant HER2 kinase (Lys676-Val1255, GST fusion) (Homo sapiens, UniProt P04626).
T1 construct: human recombinant HER2 kinase (Lys676-Val1255, GST fusion); GST
Kind of assay: HER2 kinase enzyme inhibitory activity (HTRF). To be noted: 200 μM ATP, FLT3 analogous peptide substrate, 60 minutes at room temperature. In kind it is biochemical. As for the experimental part:
The HER2 kinase enzyme inhibitory activity of a compound of the present invention was evaluated by using a purified human recombinant HER2 kinase (Lys676-Val1255, GST fusion) and a synthetic peptide as a substrate, and detecting the phosphorylation level of the substrate by the HTRF method (homogeneous time resolved fluorescence method). Specifically, 25 ng/well of activated HER2, 200 μM of ATP, 200 ng/well of FLT3 analogous peptide (biotin label, peptide sequence is AGGSSDNEYFYVDF), and test compound (final concentration 0.01 nM to 30 μM) were mixed in kinase reaction buffer (60 mM HEPES, 5 mM MgCl2, 5 mM MnCl2, 3 mM Na3VO4, 1.25 mM DTT, pH 7.5) to prepare 50 μL/well of total reaction volume, and the mixture was reacted for 60 minutes at room temperature. Then, the phosphorylation reaction was stopped and HTRF reaction was carried out by adding 25 μL/well of PBS solution comprising the following components and reacting the mixture for 12 to 16 hours at 4° C. The following components were dissolved in PBS (pH 7.0) to prepare the PBS solution composition: 60 mM EDTA (final concentration 20 mM), 1.2 M KF (final concentration […]), 1 mg/mL BSA (final concentration 333 μg/mL), 6 μg/mL anti-PY20-Cryptate (Cisbio international, France, final concentration 2 μg/mL), and 15 μg/mL Streptavidin labeled with XL665 (Cisbio international, France, final concentration 5 μg/mL).
(Time-resolved FRET reads energy transfer from a long-lived donor to a nearby acceptor.)

In assay [3] the test system is HER2 overexpressed gastric cancer cell line NCI-N87. Kind of assay: Cytotoxic activity (in vitro), CellTiter-Glo viable cell count. Type of assay: cell-based. The conditions noted are these: Homo sapiens, NCI-N87, 72 h, NCI-N87, cultured for 72 hours. As to the method:
The cytotoxic activity of a compound of the present invention was investigated using a HER2 overexpressed gastric cancer cell line NCI-N87. Specifically, an appropriate amount of cells was seeded into a 96-well plate for cell culture at 50 μL/well, and precultured overnight at 37° C. under 5% —CO2 condition. A solution of a test compound in DMSO with dilution series was diluted with medium, and added to the precultured cells at the volume of 50 μL/well. The mixture was prepared such that the final concentration of DMSO became 0.1%. After the mixture was cultured for 72 hours at 37° C. under 5% —CO2 condition, 100 μL/well of CellTiter-Glo solution (Promega, Madison, Wis.) was added, the luminescence was measured using a luminometer (Wallac ARVO™ SX) 10 minutes later, and the viable cell count was determined.
(In general: In ATP-based viability assays light output follows the ATP content of the culture.)

T1 sequence (P04626 676-1255): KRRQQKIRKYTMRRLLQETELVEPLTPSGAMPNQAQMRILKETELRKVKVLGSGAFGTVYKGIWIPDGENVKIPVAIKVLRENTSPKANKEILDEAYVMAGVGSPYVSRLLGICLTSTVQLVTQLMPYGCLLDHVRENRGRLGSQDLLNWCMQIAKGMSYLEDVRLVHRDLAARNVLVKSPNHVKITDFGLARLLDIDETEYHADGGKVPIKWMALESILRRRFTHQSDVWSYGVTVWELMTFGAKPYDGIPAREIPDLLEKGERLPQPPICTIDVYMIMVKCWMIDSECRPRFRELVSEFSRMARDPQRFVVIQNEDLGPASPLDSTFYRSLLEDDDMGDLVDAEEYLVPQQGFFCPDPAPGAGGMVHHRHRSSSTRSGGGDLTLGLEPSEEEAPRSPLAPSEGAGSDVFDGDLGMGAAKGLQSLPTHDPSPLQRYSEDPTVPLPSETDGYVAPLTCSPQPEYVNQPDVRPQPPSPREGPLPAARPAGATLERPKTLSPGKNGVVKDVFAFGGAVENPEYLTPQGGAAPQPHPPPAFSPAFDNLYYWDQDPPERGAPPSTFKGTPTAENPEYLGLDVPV

Turning to `NC1CCN(Cc2c[nH]c3ncnc(Nc4cccc(Br)c4)c23)CC1` [Example 1-8, [5-(4-Aminopiperidin-1-ylmethyl)-7H-pyrrolo[2,3-d]pyrimidin-4-yl](3-bromophenyl)amine], the inhibition in vivo at 30 mg/kg in assay [1] (dosage 30 mg/kg) stood at 59%. Moreover, the pIC50 in assay [2] is > 8.00. Further, in assay [3], the GI50 was < 0.02 µM.
For `COc1ccc(Nc2ncnc3[nH]cc(CN4CCC(N)CC4)c23)cc1` [Example 1-19, [5-(4-Aminopiperidin-1-ylmethyl)-7H-pyrrolo[2,3-d]pyrimidin-4-yl](4-methoxyphenyl)amine], the inhibition in vivo at 100 mg/kg in assay [1] (dosage 100 mg/kg) came out at 44%. Moreover, in assay [2], the pIC50 was ≤ 7.00. Further, the GI50 in assay [3] is 0.05 to 0.5 µM.
For the compound `CC1(N)CCN(Cc2c[nH]c3ncnc(Nc4ccc5occc5c4)c23)CC1` [Example 1-15, [5-(4-Amino-4-methylpiperidin-1-ylmethyl)-7H-pyrrolo[2,3-d]pyrimidin-4-yl](benzofuran-5-yl)amine], the inhibition in vivo at 60 mg/kg in assay [1] (dosage 60 mg/kg) came to 90%. The pIC50 in assay [2] is 7.30 to 8.00. The GI50 in assay [3] fell in the range of 0.02 to 0.05 µM.

The term pIC50 denotes the IC50 on a negative log10 scale, so that one unit is a factor of ten. For orientation: GI50 means the concentration giving 50% growth inhibition. Read a high GI50 as lower sensitivity of the cells.
